From article PMC9823097, “Dysregulation of PRMT5 in chronic lymphocytic leukemia promotes progression with high risk of Richter’s transformation” (Nature Communications, 2023)
“And” between values parts separate entries of the source, which are not always exact repeats. Identical values can stand only once. “Also recorded” adds a separate entry of the source.

Tests used:
Mec-1 cells = assay: Cell growth curves over 12 days, Mec-1; format: cell-based
Protocol: Live cells/mL were counted on days 3, 6, 10, and 12. […] The split factor was calculated at indicated time points by dividing the counted cells/mL by 3E5. Cell growth was extrapolated over time by multiplying the subsequent cell count by the previous split factor. Cell growth is plotted as fold change relative to DMSO-treated cells.

HG3 CLL cell line = assay: Global symmetric dimethyl arginine (SDMA) western blot, HG3; format: cell-based; details: HG3, EPZ015666 for 72hr
Excerpt: Proteins extracted from whole-cell lysates were resolved by SDS-PAGE and transferred on nitrocellulose membrane as previously described. CpG685 oligonucleotide was obtained from the OSU Cytogenetics Core Lab. Antibodies used for immunoblots included anti-human PRMT5 (Abcam #ab109451), GAPDH (Millipore Sigma #MAB374), SDMA (Cell Signaling Technology #13222), c-Myc (Cell Signaling Technology #5605S), and β-Actin (Cell Signaling Technology #4967S). Cas9-mediated doxycycline-inducible knockout of PRMT5 utilized a targeted sgRNA (guide sequence: […], PAM: GGG).

[1] = test system: Eµ-PRMT5/TCL1 Cd19+Cd5+ spleen cells engrafted into immunocompetent C57/BL6J mice; assay: Adoptive transfer of Eµ-PRMT5/TCL1 spleen cells into C57/BL6J mice, treatment study; format: in vivo
Protocol: For adoptive transfer, viable Cd19^+Cd5^+ cells (5 × 10^6) from the spleen of an Eµ-PRMT5/TCL1 transgenic mouse with active CLL-like leukemia (>80% circulating in peripheral blood) and palpable splenomegaly were engrafted by tail vein into immunocompetent C57/BL6J female mice. Engrafted mice were randomly assigned to treatment conditions: PRT382 10 mg/kg, EPZ015666 50 mg/kg, or vehicle (0.5% methylcellulose, 0.1% tween) at 1-week post engraftment. All treatments were administered by oral gavage 4 contiguous days per week (Mon-Thurs). Predefined euthanasia criteria for mice in all transgenic colonies and murine transplant models were followed and included lethargy, impaired motility, splenomegaly, enlarged lymph nodes and/or superficial lymphoid tumors greater than 1.6 cm in diameter (or cumulative diameter of 1.6 cm if multiple tumors), decrease in body weight (>20%), ruffled fur, hunched back, failure to nest, and loss of appetite.

## O=C(NC[C@H](O)CN1CCc2ccccc2C1)c1cc(NC2COC2)ncn1 [EPZ015666]
Mec-1 cells; Mec-1, 1 nM, day 0
  Rep 1 Live Cells [Fold Change]: 1 Fold Change
  Rep 2 Live Cells [Fold Change]: 1 Fold Change
Mec-1 cells; Mec-1, 1 nM, day 3
  Rep 1 Live Cells [Fold Change]: 8.617 Fold Change
  Rep 2 Live Cells [Fold Change]: 9.35 Fold Change
Mec-1 cells; Mec-1, 1 nM, day 6
  Rep 1 Live Cells [Fold Change]: 72.0928 Fold Change
  Rep 2 Live Cells [Fold Change]: 74.5 Fold Change
Mec-1 cells; Mec-1, 1 nM, day 10
  Rep 1 Live Cells [Fold Change]: 633.719 Fold Change
  Rep 2 Live Cells [Fold Change]: 819 Fold Change
Mec-1 cells; Mec-1, 1 nM, day 12
  Rep 1 Live Cells [Fold Change]: 3882.24 Fold Change
  Rep 2 Live Cells [Fold Change]: 4970 Fold Change
Mec-1 cells; Mec-1, 10 nM, day 0
  Rep 1 Live Cells [Fold Change]: 1 Fold Change
  Rep 2 Live Cells [Fold Change]: 1 Fold Change
Mec-1 cells; Mec-1, 10 nM, day 3
  Rep 1 Live Cells [Fold Change]: 7.233 Fold Change
  Rep 2 Live Cells [Fold Change]: 10.3 Fold Change
Mec-1 cells; Mec-1, 10 nM, day 6
  Rep 1 Live Cells [Fold Change]: 40.9889 Fold Change
  Rep 2 Live Cells [Fold Change]: 85.8 Fold Change
Mec-1 cells; Mec-1, 10 nM, day 10
  Rep 1 Live Cells [Fold Change]: 534.674 Fold Change
  Rep 2 Live Cells [Fold Change]: 1290 Fold Change
Mec-1 cells; Mec-1, 10 nM, day 12
  Rep 1 Live Cells [Fold Change]: 1546.22 Fold Change
  Rep 2 Live Cells [Fold Change]: 3960 Fold Change
Mec-1 cells; Mec-1, 100 nM, day 0
  Rep 1 Live Cells [Fold Change]: 1 Fold Change
  Rep 2 Live Cells [Fold Change]: 1 Fold Change
  Rep 3 Live Cells [Fold Change]: 1 Fold Change
  Rep 4 Live Cells [Fold Change]: 1 Fold Change
Mec-1 cells; Mec-1, 100 nM, day 3
  Rep 1 Live Cells [Fold Change]: 10.3 Fold Change
  Rep 2 Live Cells [Fold Change]: 8.66 Fold Change
  Rep 3 Live Cells [Fold Change]: 6.583 Fold Change
  Rep 4 Live Cells [Fold Change]: 8.22 Fold Change
Mec-1 cells; Mec-1, 100 nM, day 6
  Rep 1 Live Cells [Fold Change]: 88.992 Fold Change
  Rep 2 Live Cells [Fold Change]: 55.1353 Fold Change
  Rep 3 Live Cells [Fold Change]: 56.8361 Fold Change
  Rep 4 Live Cells [Fold Change]: 60.1 Fold Change
Mec-1 cells; Mec-1, 100 nM, day 10
  Rep 2 Live Cells [Fold Change]: 518.272 Fold Change
  Rep 3 Live Cells [Fold Change]: 601.592 Fold Change
  Rep 4 Live Cells [Fold Change]: 484 Fold Change
Mec-1 cells; Mec-1, 100 nM, day 12
  Rep 1 Live Cells [Fold Change]: 615.119 Fold Change
  Rep 2 Live Cells [Fold Change]: 1560 Fold Change
  Rep 3 Live Cells [Fold Change]: 1676.06 Fold Change
  Rep 4 Live Cells [Fold Change]: 3230 Fold Change
Mec-1 cells; Mec-1, 1 µM, day 0
  Rep 1 Live Cells [Fold Change]: 1 Fold Change
  Rep 2 Live Cells [Fold Change]: 1 Fold Change
  Rep 3 Live Cells [Fold Change]: 1 Fold Change
  Rep 4 Live Cells [Fold Change]: 1 Fold Change
Mec-1 cells; Mec-1, 1 µM, day 3
  Rep 1 Live Cells [Fold Change]: 7.867 Fold Change
  Rep 2 Live Cells [Fold Change]: 5.46 Fold Change
  Rep 3 Live Cells [Fold Change]: 6.18 Fold Change
  Rep 4 Live Cells [Fold Change]: 8.87 Fold Change
Mec-1 cells; Mec-1, 1 µM, day 6
  Rep 1 Live Cells [Fold Change]: 54.0178 Fold Change
  Rep 2 Live Cells [Fold Change]: 38.4384 Fold Change
  Rep 3 Live Cells [Fold Change]: 49.852 Fold Change
  Rep 4 Live Cells [Fold Change]: 61.2 Fold Change
Mec-1 cells; Mec-1, 1 µM, day 10
  Rep 1 Live Cells [Fold Change]: 514.04 Fold Change
  Rep 2 Live Cells [Fold Change]: 244.725 Fold Change
  Rep 3 Live Cells [Fold Change]: 462.377 Fold Change
  Rep 4 Live Cells [Fold Change]: 387 Fold Change
Mec-1 cells; Mec-1, 1 µM, day 12
  Rep 1 Live Cells [Fold Change]: 1825.77 Fold Change
  Rep 2 Live Cells [Fold Change]: 748.774 Fold Change
  Rep 3 Live Cells [Fold Change]: 1841.8 Fold Change
  Rep 4 Live Cells [Fold Change]: 1610 Fold Change
Mec-1 cells; Mec-1, continuous exposure over 12 days
  effect on growth potential (cell growth): No changes in growth potential
HG3 CLL cell line
  global symmetric dimethyl arginine residues (immunoblot): dose dependent global loss; also recorded: only a modest decrease
[1]; Figure 7F, per mouse, week 1, in % (unit assumed)
  Week 1 CD19+/B220dim: 11.48 and 18.62 and 27.54 and 11.19 and 10.12 and 10.58 and 15.76 and 16.07 and 10.74
[1]; Figure 7F, per mouse, week 2, in % (unit assumed)
  Week 2 CD19+/B220dim: 15.67 and 34.32 and 54.88 and 26.83 and 24.62 and 12.62 and 27.46 and 30.9 and 21.08
[1]; Figure 7F, per mouse, week 3, in % (unit assumed)
  Week 3 CD19+/B220dim: 36.29 and 68.26 and 63.64 and 49.66 and 47.13 and 26.83 and 51.14 and 52.04 and 25.17
[1]; Figure 7F, per mouse, week 4, in % (unit assumed)
  Week 4 CD19+/B220dim: 56.34 and 75.81 and 60.54 and 71.56 and 63.33 and 48.69 and 69.46 and 71.25 and 53.76
[1]; Figure 7F, per mouse, week 5
  Week 5 CD19+/B220dim: 50.26 and 79.76 and 83.28 and 82.04 and 59.53 and 59.67 and 70.88 and 81.41 and 79.52
[1]; Figure 7F, per mouse, week 6, in % (unit assumed)
  Week 6 CD19+/B220dim: 79.53 and 74.33 and 84.12 and 75.35 and 79.18 and 56.6 and 82.56 and 74.54 and 89.39
[1]; Figure 7F, per mouse, week 7, in % (unit assumed)
  Week 7 CD19+/B220dim: 80.7 and 87.13 and 89.6 and 89.4 and 86.59 and 66 and 85.98 and 83.54 and 93.2
[1]; Figure 7F, per mouse, week 8
  Week 8 CD19+/B220dim: 84.94 and 92.1 and 90.67 and 85.36 and 88.33 and 44.29 and 85.8 and 89.46
[1]; Figure 7F, per mouse, week 9
  Week 9 CD19+/B220dim: 85.98 and 79.2 and 88.88
[1]; Figure 7F, per mouse, week 10, in % (unit assumed)
  Week 10 CD19+/B220dim: 88.79
[1]; Figure 7G, survival endpoint indicator, per mouse
  Endpoint: 1
[1]; Figure 7G, survival, per mouse
  Days since enrollment: 64 days and 50 days and 52 days and 51 days and 58 days and 45 days
[1]; Figure 7H, per mouse
  Spleen weight: 1.7 g and 2.27 g and 2.35 g and 2.58 g and 2.18 g and 1.84 g and 2.11 g and 1.38 g
[1]; PRT382 10 mg/kg, EPZ015666 50 mg/kg, oral gavage 4 contiguous days per week
  Median survival post-enrollment: 51 days
[1]; individual mice, Supplemental Figure 6F
  Spleen volume: 1489.45 mm3 and 4749.69 mm3 and 2852.93 mm3 and 3279.99 mm3 and 2090.66 mm3 and 1726.14 mm3 and 2169.7 mm3 and 1234.53 mm3
